“Also recorded” adds a separate entry of the source.
Key:
RR-EAE mice = assay: RR-EAE model in SJL mice, clinical score; assay type: in vivo; details: for EAE clinical score: 10 mg/kg/day i.p.
Description: RR-EAE was induced in SJL female mice (6-8 week old) by subcutaneous immunization (day 0) with 100 μg/mouse proteolipid protein peptide (PLP139-151, synthesized by Sigma-Aldrich) in 0.1 ml PBS. The peptide was emulsified in an equal volume of Complete Freund's Adjuvant (CFA, from DIFCO) containing 500 μg Mycobacterium tuberculosis H37RA (MT, from DIFCO). The mice also received an intraperitoneal injection of 300 ng pertussis toxin (PTX, from Sigma-Aldrich) in 0.2 ml PBS. A second injection of PTX (300 ng/mouse) was given 48 h later.
Mice were monitored for symptoms of RR-EAE and were scored as follows: “0” for no disease; “1”, tail paralysis; “2”, hind limb weakness; “3”, hind limb paralysis; “4”, hind limb and forelimb weakness/paralysis; “5”, moribund.
The effect of the small molecule inhibitors that were identified in Example 1 above was further tested in vivo using the experimental autoimmune encephalomyelitis (EAE) model in SJL mice. EAE serves as a model for Relapsing/Remitting multiple sclerosis (MS). EAE was induced as described in the experimental procedures section. SMs 1-9 or vehicle alone (5% DMSO in PBS) were daily administered by intraperitoneal injections of 250 μg/mouse (10 mg/kg/day), starting from day 9 post immunization, for the next 30 days. The animals were monitored until day 45 post-induction for symptoms of EAE and scored as follows: 0=no disease, 1=tail paralysis, 2=hind limb weakness, 3=hind limb paralysis, 4=hind limb plus forelimb paralysis, and 5=moribund.
Experiments were repeated with the 4 above-mentioned molecules SM1, SM6, SM7 & SM9. The experiment was conducted under similar conditions as the previous one, except that two dosages of the molecules were administered: a dose of 10 mg/kg and dose of 20 mg/kg, namely 250 μg/mouse and 500 μg/mouse on days 9-38 (see FIG. 4).

BMP-2 = target: T1, BMP-2 (Homo sapiens, UniProt P12643); assay: ATDC5 cell based HTS bioassay: ALP production stimulated by BMP-2 and heparin; parameters: species or system mouse; details: for IC50: inhibition of BMP-2-stimulated ALP in ATDC5 cells, 48 hours, tested at 0.62-10 μM; for inhibition at 2.5 µM: ATDC5 cells, read-out: inhibition of BMP-2 (ALP induction)
T1 construct: purchased R&D Systems
T1 sequence (P12643 283-396): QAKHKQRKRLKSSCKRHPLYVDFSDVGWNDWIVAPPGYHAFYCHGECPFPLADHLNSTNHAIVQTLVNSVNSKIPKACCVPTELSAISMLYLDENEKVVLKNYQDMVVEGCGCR
Description: Poly-L-lysine (Sigma-Aldrich) was added to 384-well plates and was removed after 30 min of incubation at RT. An assay medium containing DMEM/F12, 2% FBS, 100 units/ml penicillin, […] streptomycin (Biological industries) was added to each well. […] ATDC5 cells (Sigma-Aldrich) were harvested, re-suspended in assay medium and added to a final concentration of 2000 cells/well. Finally, heparin (Sigma-Aldrich) was added to a final concentration of 2 μg/ml. The cells were incubated for 48 hours at 37° C. with 5% CO2 in a humidified chamber in the presence or absence of potential small molecule inhibitors of BPM-2. After incubation, ALP levels and cell viability were determined using a completely automated protocol. Cells were washed with PBS, lysed using a lysis buffer containing 0.2% Triton X-100 in PBS supplemented with a protease inhibitor cocktail (Sigma-Aldrich) and incubated for 25 min at RT. ALP level was then determined by addition of CDP-Star® chemiluminescent substrate (Sigma-Aldrich) and measurement of luminescence after incubation for 25 min at RT in the dark. Cell viability was finally determined by addition of CellTiter-Glo® reagent (Biological Industries) and luminescence measurement after 10 min of incubation.
An ATDC5 cell based assay for assessing structure-function relationship of BMP-2 and BMP receptor IA was originally described in Keller et al (Nature Structural & Molecular Biology 2004 11, 481-488). In order to screen a large volume of potential therapeutic agents the ATDC5 cell based bioassay for detecting BMP inhibition was adapted for use in high throughput screening. The bioassay is based on the stimulation of alkaline phosphatase (ALP) production in mouse ATDC5 cells by administration of BMP-2 and heparin, and measurement of ALP levels in the presence of the potential inhibitors. […] This was achieved by using CellTiter-Glo® Luminescent Cell Viability Assay for assessing the cells' viability after the luminescent signal by CDP-Star® has faded. The simultaneous assessment of both ALP production and cells' viability was necessary since potentially toxic tested small molecules may lead to reduced ALP levels by cellular cytotoxicity rather than by interference with BMP-2 signaling. […] Particulars of the bioassay are detailed in the Experimental procedures section above.
A library of small molecules (SM) was screened using the High Throughput Screening bioassay described above. About 7600 SMs were screened, from the Maybridge library, which consists of organic “drug-like” compounds, using the pre-plated HitFinder™ Collection. […] The SM were tested at various concentrations, i.e. at 0.62 μM, 1.25 μM, 2.5 μM, 5 μM and 10 μM.

P19 cells = assay: In vitro differentiation assay of P19 cells (MAP-2 positive neurons); assay type: cell-based, murine; details: for MAP-2+ cells: day 8; for effect on neuronal phenotype (number of MAP-2+ cells) vs. RA+BMP-2: RA + rhBMP-2 + SM at 0.625, 1.25 and 2.5 μM
Description: P19 cells were grown in a-minimum essential medium (aMEM) (Gibco) containing 7.5% calf serum, 2.5% fetal calf serum, and 0.4 μl/ml penicillin—streptomycin (Gibco), at 37° C., 5% CO2. Cells were replenished with fresh medium every 48 h.
The medium, including RA, BMP supplements and SMs, was replenished after 48 h. After 4 days, aggregates which formed during RA treatment were dispersed enzymatically (0.05% v/v trypsin-0.02% v/v EDTA) and mechanically and plated in tissue culture grade dishes. At this stage, cells were cultured in RA-, BMP- and SM-free medium, which was refreshed every 48 h. MAP-2 positive neurons were examined at day 8 (i.e., day 4 post-RA treatment) by immunofluorescence. Briefly, at day 7, cells were re-cultured in 24 well-plates with cover slips at a final concentration of 5×10^4 cells/well. On day 8, cells were washed with PBS, fixed with PFA 4% for 15 min, permeabilized with 0.5% Triton Tx, blocked with 10% FCS, 0.1% BSA and 0.05% Tween for 30 min, and stained with MAP2 rabbit mAb (1:100, D5G1, Cell Signaling) for 1 hr. The second antibody step was performed by labeling with Alexa Fluor® 488-conjugated IgG antibody to rabbit for 1 h (1:1000; Molecular Probes USA).
Next, the effect of the small molecules on neurogenesis in a P19 differentiation model was measured. […] Neuronal differentiation is marked by the expression of the neuronal marker MAP-2, while the addition of BMP-2 reduces the levels of this marker. Addition of the murine anti-BMP-2/4 monoclonal antibody reverses the effect of BMP-2 and induces acquisition of neuronal phenotype. Thus, the effect of SM1, SM7 and SM9 on the expression of the neuronal marker MAP-2 in P19 cells was examined in the presence of RA and BMP-2. Three concentrations of the molecules were tested: 0.625 μM, 1.25 μM and 2.5 μM.

[1] = first experiment, 10 mg/kg/day i.p. from day 9 for 30 days, vs. vehicle
[2] = second experiment, 10 and 20 mg/kg, vs. vehicle
[3] = second experiment, high dosage 20 mg/kg, days 9-38, vs. vehicle
[4] = second experiment, low dosage 10 mg/kg, days 9-38, vs. vehicle
[5] = first experiment, day 21 post immunization (vehicle 1.1±0.3)

Question: How did the “effect on EAE clinical score” value (RR-EAE mice; [1]) turn out when COC(=O)c1sccc1N/N=C(\C#N)S(=O)(=O)c1cccs1 [SM1, Methyl 3-[(2E)-2-[cyano(thiophen-2-ylsulfonyl)methylidene]hydrazinyl]thiophene-2-carboxylate] was run?
Answer: beneficial effect

Question: What about the EAE clinical score (RR-EAE mice; first experiment, day 19 post immunization (vehicle 1.1±0.3)) of the same molecule?
Answer: 0.5±0.2

Question: What about the EAE clinical score (RR-EAE mice; first experiment, day 27) of the same molecule?
Answer: 0.3±0.3

Question: And the “number of mice with moderate-severe EAE (clinical score at least 2)” value (RR-EAE mice; [2])?
Answer: beneficial effect

Question: What about the “effect on EAE clinical score” value (RR-EAE mice; [3]) of the same molecule?
Answer: trend for amelioration

Question: And the “effect on EAE clinical score” value (RR-EAE mice; [4])?
Answer: significant beneficial effect

Question: What about the IC50 (BMP-2) of the same molecule?
Answer: 2.6 µM

Question: And the “MAP-2+ cells” value (P19 cells; RA + rhBMP-2 + SM 2.5 μM)?
Answer: 62.2±3.9%

Question: What about the “effect on neuronal phenotype (number of MAP-2+ cells) vs. RA+BMP-2” value (P19 cells) of the same molecule?
Answer: reversed the effect of BMP-2; also recorded: induced neuronal phenotype at all examined concentrations

Question: For O=C(Nc1cccc(C(F)(F)F)c1)c1ccc([N+](=O)[O-])o1 [SM6, N2-[3-(trifluoromethyl)phenyl)-5-nitro-2-furamide], which “effect on EAE clinical score” value (RR-EAE mice; [1]) is on record?
Answer: did not show any beneficial effect

Question: And the “effect on EAE clinical score” value (RR-EAE mice; second experiment, 10 and 20 mg/kg, days 9-38)?
Answer: milder and not significant

Question: And the “number of mice with moderate-severe EAE (clinical score at least 2)” value (RR-EAE mice; [2])?
Answer: reduced

Question: What about the “number of mice with a more severe EAE” value (RR-EAE mice; second experiment, during the second relapse (vehicle 5-6 mice)) of the same molecule?
Answer: 2-3 mice

Question: What about the “number of mice with a more severe EAE” value (RR-EAE mice; second experiment, during the third relapse (vehicle 8-9 mice)) of the same molecule?
Answer: 5-7 mice

Question: What about the IC50 (BMP-2) of the same molecule?
Answer: 9.7 µM

Question: N#Cc1c(O)nsc1Nc1ccccc1C(F)(F)F [SM7, 3-hydroxy-5-[2-(trifluoromethyl)aniline]isothiazole-4-carbonitrile] was tested. Which “effect on EAE clinical score” value (RR-EAE mice; [1]) did it give?
Answer: beneficial effect

Question: What about the EAE clinical score (RR-EAE mice; [5]) of the same molecule?
Answer: 0.6±0.1

Question: And the “mice died by the end of the experiment” value (RR-EAE mice; second experiment, high dose group 20 mg/kg, day 48)?
Answer: all of the mice died

Question: And the “mice died by the end of the experiment” value (RR-EAE mice; second experiment, low dose group 10 mg/kg, day 48, n=14)?
Answer: 8 mice

Question: And the inhibition at 2.5 µM (BMP-2)?
Answer: 47.3%

Question: What about the IC50 (BMP-2) of the same molecule?
Answer: 2.2 µM

Question: What about the “MAP-2+ cells” value (P19 cells; RA + rhBMP-2 + SM 1.25 μM) of the same molecule?
Answer: 76.1±3.1%

Question: What about the “MAP-2+ cells” value (P19 cells; RA + rhBMP-2 + SM 2.5 μM) of the same molecule?
Answer: No significant effect

Question: And the “effect on neuronal phenotype (number of MAP-2+ cells) vs. RA+BMP-2” value (P19 cells)?
Answer: reversed the effect of BMP-2; also recorded: induced neuronal phenotype at both the low and the mild concentrations

Question: What does the source list for CS(=O)(=O)c1noc(-c2ccc(Cl)cc2)c1C#N [SM9, 5-(4-chlorophenyl)-3-methylsulfonyl-1,2-oxazole-4-carbonitrile]?
Answer: effect on EAE clinical score (RR-EAE mice; [1]): beneficial effect; EAE clinical score (RR-EAE mice; [5]): 0.8±0.3; number of mice with moderate-severe EAE (clinical score at least 2) (RR-EAE mice; [2]): beneficial effect; effect on EAE clinical score (RR-EAE mice; [3]): ameliorated EAE; effect on EAE clinical score (RR-EAE mice; [4]): ameliorated EAE; inhibition at 2.5 µM (BMP-2): 29.1%; IC50 (BMP-2): 4.4 µM; MAP-2+ cells (P19 cells; RA + rhBMP-2 + SM 0.625 μM (low concentration)): not effective; MAP-2+ cells (P19 cells; RA + rhBMP-2 + SM 1.25 μM): 76.4±12.6%; MAP-2+ cells (P19 cells; RA + rhBMP-2 + SM 2.5 μM): 80.6±10.0%; effect on neuronal phenotype (number of MAP-2+ cells) vs. RA+BMP-2 (P19 cells): reversed the effect of BMP-2

Source: patent US11779565B2, “Small organic molecules for use in the treatment of neuroinflammatory disorders” (THE MEDICAL RESEARCH, INFRASTRUCTURE AND HEALTH SERVICES …, priority 2017, dated 2023)
